Experimental data reported in publication PMC8950706, “Influence of Substitutions in the Binding Motif of Proline-Rich Antimicrobial Peptide ARV-1502 on 70S Ribosome Binding and Antimicrobial Activity” (International Journal of Molecular Sciences, 2022).
In brackets after ≈: the same amount, converted by molar mass. Square brackets hold non-standard residues; d marks the D form. Peptide text beside a SMILES is read from it. Ac6c = NC1(C(=O)O)CCCCC1

Tests used:
E. coli 70S ribosome [1] = test: Competitive fluorescence polarization assay against Cf-ARV-1502 (Ki); format: binding, E. coli BW25113; conditions: 20 nmol/L Cf-ARV-1502, 0.5 µmol/L ribosome, 28 °C, 90 min + 90 min, Ki calculated from IC50; for Ki: read-out: Ki (nmol/L), competition with Cf-ARV-1502
Experimental: (§1) E. coli 70S ribosomes were prepared using a previously described protocol that was slightly modified. Briefly, E. coli BW25113 was cultivated in Luria-Bertani (LB) medium and cells were harvested after reaching an optical density of ~4 at 600 nm by centrifugation (5000× g, 15 min, 4 °C, Rotor JLA 8.100, Avanti J-20 XP, Beckmann Coulter, Krefeld, Germany). The cell pellets were frozen and stored at −80 °C. Cells were resuspended in ribosome buffer (2 mL/g cells; 20 mmol/L HEPES-KOH, 6 mmol/L MgCl2, 30 mmol/L NH4Cl, 4 mmol/L 2-mercaptoethanol, pH 7.6). Lysozyme (0.25 g/L cell suspension) was added, and the mixture was incubated on ice for 30 min. Cells were disrupted using the bead mill homogenizer FastPrep-24™ 5G (40 s, 4 m/s, 6 cycles, MP Biomedicals Germany GmbH, Eschwege, Germany) and zirconia/silica beads (0.1 mm diameter). The lysate was centrifuged (1500× g, 5 min, 4 °C, Rotor S4180, Allegra 21R, Beckmann Coulter) and the supernatant was incubated with DNase (5 U/mL) on ice for 60 min.
Dissociation and inhibitory constants were determined in black 384-well-plates (Greiner Bio-One GmbH, Frickenhausen, Germany) blocked with 0.5% (w/v) casein in phosphate buffered saline (PBS, 8.8 mmol/L Na2HPO4×12 H2O, 1.2 mmol/L KH2PO4, 0.3 mol/L NaCl, pH 7.4) containing 0.05% (w/v) Tween® 20 (PBST) overnight at 4 °C and washed three times with PBST.
Ribosome solution was added (10 µmol/L) and the plate was incubated after centrifugation (2 min, 500× g, Rotor S2096, Allegra^TM 21R, Beckmann Coulter) at 28 °C for 90 min. Cf-labeled peptide was added (10 µL; final concentration of 20 nmol/L; final ribosome concentration of 0.5 µmol/L) and the plate was centrifuged and incubated again (90 min, 28 °C, dark). […] Kd and IC50 values were calculated by fitting the data with a variable slope parameter [y = min + (max − min)/(1 + (x/Kd) ^−Hill slope) ] using SigmaPlot 13 (Systat Software Inc., San Jose, CA, USA). The obtained IC50 values were used to calculate the Ki values.

E. coli 70S ribosome [2] = test: Competitive FP binding screening assay with Cf-ARV-1502 (relative FP); set-up: species or system E. coli BW25113; conditions: for Ribosome Binding (%): competitive ribosome binding against Cf-ARV-1502 (relative FP; values match 1.2 µmol/L peptide), low value = strong competition
Experimental: as §1, with “60 min. The cell debris was removed by two centrifugation steps (16,000× g, 30 min, 4 °C followed by 32,000× g, 60 min, 4 °C, Rotor JA 30.50 Ti, Avanti J-30I, Beckmann Coulter). The ribosome was pelleted by ultracentrifugation (165,000× g, 17 h, 4 °C, Rotor 70 Ti, Optima LE-80K, Beckmann Coulter), resuspended in ribosome buffer (0.1 mL/g pellet), and stored at −80 °C. The ribosome concentration was determined by recording the absorbance of RNA at 260 nm (NanoPhotometer NP80, Implen GmbH, München, Germany) assuming that 1 AU corresponds to a ribosome concentration of 28 nmol/L. The molecular weight of the E. coli 70S ribosome was assumed to be 2.3 MDa.” for “60 min.”
E. coli 70S ribosomes and Cf-ARV-1502 were incubated with four different concentrations of unlabeled peptides chosen based on the IC50 curves of reference peptide ARV-1502. Each peptide was diluted in ribosome buffer to obtain a concentration of 4.8 µmol/L and transferred to a 384-well-plate. Peptides were then twofold serially diluted in four steps from 4.8 to 0.6 µmol/L (20 µL). The ribosome extract was diluted in ribosome buffer to reach a concentration of 2 µmol/L and 10 µL were added to each well to obtain a final ribosome concentration of 0.5 µmol/L. Plates were centrifuged (2 min, 500× g, Rotor S2096, Allegra^TM 21R, Beckmann Coulter) and incubated at 28 °C for 90 min. Cf-labeled ARV-1502 was added (10 µL; final concentration of 20 nmol/L) and the plates were again centrifuged and incubated (28 °C, 90 min). After incubation, fluorescence polarization was recorded on a […]^TM microplate reader (λex = 485 nm, λem = 535 nm).
On each plate 12 minimum (30 µL ribosome buffer and 10 µL Cf-ARV-1502) and 12 maximum (20 µL ribosome buffer, 10 µL ribosome solution and 10 µL Cf-ARV-1502) control samples were added. Fluorescence polarization of screening samples was normalized to the fluorescence polarization of these control samples. All screening samples were measured in triplicates and the whole experiment was repeated once on another day.

E. coli BW25113 = test: MIC, liquid broth micro dilution, wild type; format: cell-based, Escherichia coli; conditions: for MIC (µg/mL), Table 3: BW25113, 4 h; for Minimal Inhibitory Concentration, 25% MHB2, wt / Minimal Inhibitory Concentration, 33% TSB, wt: BW25113, 20 h
Experimental: (§2) MIC values were determined using a liquid broth micro dilution assay in sterile 96-well plates (polystyrene F-bottom, Greiner Bio-One GmbH) and a total volume of 100 μL per well. Aqueous peptide solutions (10 g/L) were serially twofold diluted in 25% Mueller-Hinton broth 2 (25% MBH2) or 33% tryptic soy broth (33% TSB) starting at a peptide concentration of 128 mg/L (50 μL/well). Overnight cultures of bacteria grown in 25% MHB2 (or 33% TSB) were diluted 30-fold in 25% MHB2 (or 33% TSB). After an incubation period of 4 h (37 °C, 200 rpm), cells were diluted to 1.5 × 10^7 cfu/mL, based on a McFarland test, and 50 μL were added to each well (final concentration of 7.5 × 10^6 […]). The plates were incubated (37 °C, 20 h) and the optical density was recorded at 595 nm using a microplate reader ([…]^TM, Beckmann Coulter). The MIC was defined as the lowest peptide concentration preventing visible bacterial growth.

[3] = tested on: E. coli BW25113 ∆sbmA ∆mdtM; format: cell-based, Escherichia coli
Experimental: as §2

E. coli BW25113 ∆sbmA = format: cell-based, Escherichia coli
Experimental: as §2

E. coli 70S ribosome [4] = test: Cell-free GFP expression assay (in vitro translation); format: biochemical; conditions: for In Vitro Translation (%): GFP expression remaining relative to control, concentration not given (higher concentration 50 µmol/L)
Description: Possible effects of ARV-1502 and its substituted analogs on the in vitro translation of the green fluorescent protein (GFP) were probed using the NEB PureExpress Delta RF123 Kit (New England Biolabs, Ipswich, MA, USA). The sfGFP DNA template was amplified from pY71sfGFP plasmid by PCR introducing an UAA stop codon. Release factor 1 (RF1) was 50fold diluted in Pure System Buffer (PSB) containing magnesium acetate (1 mol/L), monopotassium phosphate (0.5 mol/L, pH 7.3), potassium glutamate (1 mol/L), NH4Cl (1 mol/L), calcium chloride (0.5 mol/L), spermidine (1 mol/L), putrescine (0.1 mol/L), and DTT (0.1 mol/L). Each reaction used 35 ng of sfGFP template. Peptides were added at a final concentration of 5 µmol/L and 50 µmol/L. The reaction was started by adding Kit solutions A (2 µL) and B (1.5 µL), diluted RF1 (0.5 µL), sfGFP template (0.25 µL or water as negative control), PSB (0.25 µL), and peptide (0.5 µL or water), mixed, transferred into a black 384-well plate (flat bottom, Greiner Bio-One GmbH), and incubated (37 °C, 2 h). The fluorescence was recorded every 10 min (λexc = 485 nm, λem = 535 nm) in a microplate reader (Gemini EM, Molecular Devices LLC, San Jose, CA, USA).

[5] = 25% MHB2, 37 °C, 20 h, at least duplicates on two days, * once on two days, ** duplicate on one day
[6] = 33% TSB, 37 °C, 20 h, at least duplicates on two days, * once on two days, ** duplicate on one day

Row | SMILES | Ki (E. coli 70S ribosome [1]) [nmol/L] | Ribosome Binding (%) (E. coli 70S ribosome [2]) | MIC (µg/mL), Table 3 (E. coli BW25113) [µg/mL] | Minimal Inhibitory Concentration, 25% MHB2, wt (E. coli BW25113) [µg/mL] | Minimal Inhibitory Concentration, 33% TSB, wt (E. coli BW25113) [µg/mL] | In Vitro Translation (%) (E. coli 70S ribosome [4]) | also measured
1 | O=C(N[C@H](CO)[C@H](O)c1ccc([N+](=O)[O-])cc1)C(Cl)Cl [Chloramphenicol] | 1700 ± 481 |  |  |  |  |  | 
2 | CC[C@H]1OC(=O)[C@H](C)[C@@H](O[C@H]2C[C@@](C)(OC)[C@@H](O)[C@H](C)O2)[C@H](C)[C@@H](O[C@@H]2O[C@H](C)C[C@H](N(C)C)[C@H]2O)[C@](C)(O)C[C@@H](C)C(=O)[C@H](C)[C@@H](O)[C@]1(C)O [Erythromycin] | 23 ± 1.6 |  |  |  |  |  | 
3 | CC(C)C[C@H](NC(=O)[C@H](Cc1ccc(O)cc1)NC(=O)[C@@H]1CCCN1C(=O)[C@H](CCCNC(=N)N)NC(=O)[C@@H]1CCCN1C(=O)[C@H](CC(=O)O)NC(=O)[C@H](CO)NC(=O)[C@@H]1CCCN1C(=O)[C@H](CCCNC(=N)N)NC(=O)C1(N)CCCCC1)C(=O)N1CCC[C@H]1C(=O)N[C@@H](CCCNC(=N)N)C(=O)N1CCC[C@H]1C(=O)N[C@@H](CCCNC(=N)N)C(=O)N1CCC[C@H]1C(=O)N1CCC[C@H]1C(=O)N[C@@H](CCCNC(=N)N)C(=O)N1CCC[C@H]1C(=O)N[C@H](C(=O)N[C@@H](CCCNC(=N)N)C(N)=O)C(C)C [Peptide 50] (H-[Ac6c]RPSDPRPYLPRPRPPRPVR-NH2) |  | 67.9 ± 4.8 | 128 (≈ 52.6 µM) | 128 | 64 | 113.7 ± 9.1 | Inhibition of Cf-ARV-1502 binding to the 70S ribosome (in words) (E. coli 70S ribosome [2]; Figure 3: peptide concentration 1.2 µmol/L): inhibited Cf-ARV-1502; MIC / activity against E. coli (E. coli BW25113; medium not given): low activity against E. coli; Minimal Inhibitory Concentration, 25% MHB2, ∆sbmA ∆mdtM [3, 5]: >128 µg/mL; Minimal Inhibitory Concentration, 33% TSB, ∆sbmA ∆mdtM [3, 6]: >128 µg/mL; Minimal Inhibitory Concentration, 25% MHB2, ∆sbmA (E. coli BW25113 ∆sbmA; [5]): >128 µg/mL; Minimal Inhibitory Concentration, 33% TSB, ∆sbmA (E. coli BW25113 ∆sbmA; [6]): >128 µg/mL
4 | CC(C)C[C@H](NC(=O)[C@H](Cc1ccc(O)cc1)NC(=O)[C@@H]1CCCN1C(=O)[C@H](CCCNC(=N)N)NC(=O)[C@@H]1CCCN1C(=O)[C@H](Cc1ccccc1)NC(=O)[C@H](Cc1ccccc1)NC(=O)[C@@H]1CCCN1C(=O)[C@H](CCCNC(=N)N)NC(=O)C1(N)CCCCC1)C(=O)N1CCC[C@H]1C(=O)N[C@@H](CC(C)C)C(=O)N1CCC[C@H]1C(=O)N[C@@H](CCCNC(=N)N)C(=O)N1CCC[C@H]1C(=O)N1CCC[C@H]1C(=O)N[C@@H](CCCNC(=N)N)C(=O)N1CCC[C@H]1C(=O)N[C@H](C(=O)N[C@@H](CCCNC(=N)N)C(N)=O)C(C)C [Peptide 102] (H-[Ac6c]RPFFPRPYLPLPRPPRPVR-NH2; N-terminus and C-terminus assumed) |  | 76.5 ± 5.6 | 32 to 64 | 32 to 64 | 64 | 78.9 ± 3.5 | Effect of the additional mdtM knockout on antibacterial activity ([3]; ∆sbmA ∆mdtM compared with ∆sbmA): no effect; Effect of deletion of SbmA on antibacterial activity (E. coli BW25113 ∆sbmA; ∆sbmA compared with wild-type strain): no effect; Reduction of GFP expression, 50 µmol/L peptide (E. coli 70S ribosome [4]; cell-free expression, peptide-to-ribosome ratio of 25, GFP fluorescence, 37 °C): ~ 25%
5 | [H]/N=C(/N)N[C@H]1[C@H](O)[C@@H](O)[C@H](O[C@@H]2O[C@@H](C)[C@](O)(C=O)[C@H]2O[C@@H]2O[C@@H](CO)[C@H](O)[C@@H](O)[C@@H]2NC)[C@@H](N/C(N)=N\[H])[C@@H]1O [Streptomycin] |  |  |  |  |  |  | Ki (nmol/L), competition with Cf-ARV-1502 (E. coli 70S ribosome [1]): no fit; Ki (nmol/L), competition with Cf-ARV-1502 (E. coli 70S ribosome [1]; listed as streptomycin): did not affect the binding of Cf-ARV-1502
